Measured values as given in article PMC8909805, “Anticancer Activity of (S)-5-Chloro-3-((3,5-dimethylphenyl)sulfonyl)-N-(1-oxo-1-((pyridin-4-ylmethyl)amino)propan-2-yl)-1H-indole-2-carboxamide (RS4690), a New Dishevelled 1 Inhibitor” (Cancers, 2022).

Assays:
HCT116 cells = test: Cell growth inhibition, MTT assay, HCT116; type: cell-based; conditions: Homo sapiens, HCT-116; incubation time 48 h; cells express wild-type APC
Description: (§1) Cell viability was evaluated by XTT [35] (SW480 and SW620 cells) or MTT [36] (HEK293 and HCT116 cells) colorimetric assays. Briefly, cells (range 10–30 × 10^3 cells/well) were seeded in 96-well microculture plates and then exposed to increasing concentrations of different compounds (range 0–300 µM) for 48 or 72 h. At the end of the treatment, media were removed and incubated at 37 °C in the dark for 4 h in phosphate-buffered saline (PBS) containing 0.2 mg/mL of sodium 3′-[1-[(phenylamino)-carbonyl]-3,4-tetrazolium]-bis(4-methoxy-6-nitro)benzene-sulfonic acid hydrate (XTT) (Thermo Fisher Scientific, Waltham, MA, USA) or (3-[4,5-dimethylthiazol-2-yl]-2,5 diphenyl tetrazolium bromide (MTT) (Merck, Kenilworth, NJ, USA) and phenazine methosulfate (PMS) at a final concentration of 25 µM. Absorbance at 450 nm and a reference wavelength of 650 nm was then measured using a microplate spectrophotometer (Multiskan FC Microplate Photometer, Thermo Scientific, Waltham, MA, USA). The cell growth inhibition rate was calculated utilizing the following formula: inhibition rate (%) = […], where Control OD is absorbance of negative control and Sample OD is absorbance of the test sample. The IC50 values were determined with GraphPad Prism 5 through constructed dose-response curves.
(§2) In vitro cultures of colon cancer cells often present mutations either in the APC gene or in the β-catenin gene. […] Two of these cell lines, colon cancer SW480 and SW620 cells, were used in dose-response experiments. […] We thus tested their growth inhibitory activity on the colon cancer cell line HCT116. In terms of APC and β-catenin, these represent the wt counterparts of SW480 and […]. HCT116 cells express wt APC and are heterozygous for β-catenin, harboring one wild type and one mutant (Ser45del) allele. WNT pathway activity and the survival of HCT116 cells thus depend on DVL and can be affected by FZD and DVL inhibitors. […]

SW620 cells = test: Cell growth inhibition, XTT assay, SW620; type: cell-based; conditions: Homo sapiens, SW-620; incubation time 72 h
Description: as §1, §2

Structure (SMILES)	EC50 (HCT116 cells)	EC50 (SW620 cells)
Cc1cc(C)cc(S(=O)(=O)c2c(C(=O)N[C@H](C)C(=O)NCc3ccncc3)[nH]c3ccc(Cl)cc23)c1 [(R)-1]	28.3 ± 1.2 µM	54.8 ± 1.9 µM
Cc1cc(C)cc(S(=O)(=O)c2c(C(=O)NC(C)C(=O)NCc3ccncc3)[nH]c3ccc(Cl)cc23)c1 (stereo not drawn) [Compound 1]	15.2 ± 1.1 µM	38.5 ± 1.6 µM
Cc1cc(C)cc(S(=O)(=O)c2c(C(=O)N[C@@H](C)C(=O)NCc3ccncc3)[nH]c3ccc(Cl)cc23)c1 [(S)-1, (S)-5-Chloro-3-((3,5-dimethylphenyl)sulfonyl)-N-(1-oxo-1-((pyridin-4-ylmethyl)amino)propan-2-yl)-1H-indole-2-carboxamide]	7.1 ± 0.6 µM	45.9 ± 2 µM
